For this test, the system named is CEM cells HIV-1 protection, formazan growth assay. As to the kind of experiment: NCI AIDS Antiviral Assay. The following applies: for pIC50: measured here: growth of uninfected CEM cells. Put shortly:
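Protection of CEM cells against HIV-1 measured as cell growth via soluble formazan read-out, with five concentrations tested on both infected and uninfected cells; failure to protect may reflect toxicity.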

pEC50, pIC50: −log10 of the molar value. Calls of active or inactive are those of the source.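 The calls were made as follows: active = compounds giving half or more protection of infected cells from virus-caused growth loss, again on retest; inactive = the rest.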

As for `CNCCCNCCCSP(=O)(O)O`, the pEC50 was less than 3.71 and the negative-log IC50 (pIC50) is 3.72.
As for `OCC1OC(Oc2cc(O)cc(CCc3ccc(O)c(O)c3)c2)C(O)C(O)C1O` (stereo not drawn), the pEC50 is less than 3.21 and the pIC50 is 4.38.
For `O=c1cc2ccc(Cl)cc2n[nH]1`, the pEC50 is less than 4.07 and the pIC50 was less than 4.07.
Regarding `CCCc1cc(=O)oc2c3c(cc(OC(C)C)c12)O[C@H](C)[C@H](C)C3=O`, the pEC50 was less than 3.70 and the negative logarithm of the IC50 (pIC50) is 4.52.
Turning to `C/C=C/C=C/c1nc(C#N)c(N)o1`, the pEC50 was less than 3.70 and the pIC50 was 4.07.
For the compound `CCOP(=O)(OCC)C(C(=O)OC)C(=O)C(=O)Nc1cccc(O)c1` (stereo not drawn), the pEC50 is less than 3.17 and the pIC50 is less than 3.17.
Take `Nc1ncnc2c1ncn2[C@@H]1C[C@@H]1CO`: the pEC50 is less than 3.70 and the negative logarithm of the IC50 (pIC50) was less than 3.70.
As to `CCOP(=O)(OCC)C(Nc1ccc(Br)cc1)c1cccc([N+](=O)[O-])c1` (stereo not drawn), the result was inactive.
On to `COc1cc(-c2nc3sc(-c4ccc(O)c(OC)c4)nc3s2)ccc1O`, for which the pEC50 was 4.08 and the pIC50 is less than 3.70.
Regarding `Cc1ccc(Oc2nc(Cl)nc(Oc3ccc(C)cc3)n2)cc1`, the pEC50 is less than 3.70 and the pIC50 was less than 3.70.
With `COC(=O)C1=CN=C(C(=O)OC)NN1`, the pEC50 was less than 2.90 and the pIC50 was 3.27.
For `CC(Cc1cccc2c1Nc1ccccc1S2)N(C)CCO` (stereo not drawn) the same measures were less than 3.70 and 4.47.
As to `BrCc1ccc(CBr)c2c1-c1c(CBr)ccc3ccc(CBr)c-2c13`, the pEC50 is less than 3.70 and the negative logarithm of the IC50 (pIC50) is 4.64.
Regarding `CC(C)(C)C1=NC(S)NC(CCC(=O)Nc2ccccc2[N+](=O)[O-])=C1` (stereo not drawn), the pEC50 is less than 3.16 and the pIC50 was less than 3.16.
On to `O=C(O)/C(=C/C=C/c1ccccc1)c1csc(-c2nc(/C(=C\C=C\c3ccccc3)C(=O)O)cs2)n1`, for which the pEC50 was less than 3.74 and the pIC50 is less than 4.00.
Take `c1cc2[nH]snc2c2cncc12`: the pEC50 was less than 3.70 and the negative-log IC50 (pIC50) was 4.95.
Taken in the same sequence, the figures for `CN1CCN(C(=S)N(C(=O)c2ccco2)c2ccccc2)CC1` were less than 3.12 and less than 3.12.
Regarding `COc1cccc2c1C(c1cccc3ccccc13)OC2=O` (stereo not drawn), the pEC50 is less than 4.34 and the pIC50 was 5.10.
Taken in the same sequence, the figures for `CCCCNC(=S)/C(C#N)=C1\Nc2ccccc2O1` were less than 3.70 and 4.49.
For `Cc1ccc(SCC(CF)OC(C)n2cnc3c(=O)[nH]c(N)nc32)cc1` (stereo not drawn) the same measures were less than 3.70 and 4.13.
Turning to `Cc1cc(C)nc(NS(=O)(=O)c2ccc(NNC(=O)c3cccc4c(=O)c5ccccc5[nH]c34)cc2)n1`, the pEC50 was less than 3.70 and the pIC50 is 4.50.
On to `O=C1NC(N2CCOCC2)=N/C1=C\c1cccs1`, for which the pEC50 is less than 3.70 and the pIC50 was less than 3.70.
With `CC(=O)c1ccc2c(c1)oc(=O)n2CCN(C)C`, the pEC50 was less than 3.70 and the negative logarithm of the IC50 (pIC50) was 3.85.
Compound `O=C(O)c1ccccc1-c1c2cc(I)c(=O)c(I)c-2oc2c(I)c(O)c(I)cc12` had a negative logarithm of the EC50 (pEC50) of less than 4.23 and a pIC50 of 4.97.
As for `Cc1cn([C@H]2C[C@@H]3[C@@H](COC(CCl)N3O)O2)c(=O)[nH]c1=O` (stereo partly drawn), the pEC50 was less than 3.70 and the negative-log IC50 (pIC50) was 4.50.
In the case of `CC(C)CCCC(C)[C@H]1CC[C@H]2[C@@H]3CC[C@H]4C[C@@H](CCC=C(c5cc(Cl)c(OC(=O)C(C)(C)C)c(C(=O)O)c5)c5cc(Cl)c(OC(=O)C(C)(C)C)c(C(=O)O)c5)CC[C@]4(C)[C@H]3CC[C@]12C` (stereo partly drawn), the pEC50 is 4.12 and the pIC50 was less than 4.00.
On to `CCN(CC)Cc1cc(Nc2ccnc3ccc4nn(C)nc4c23)ccc1O`, for which the pEC50 is less than 3.22 and the negative-log IC50 (pIC50) was 4.80.
Regarding `Nc1cc(CO)cc(Nc2c3ccccc3nc3ccccc23)c1`, the pEC50 was less than 5.70 and the pIC50 was 6.46.
For `C=CC[C@]12CC(=O)OC(C=CC13OCCO3)C2` the same measures were less than 3.70 and less than 3.70.
On to `CCOC(=O)C1=NN(c2ccccc2)C(=O)/C1=C\n1ccc(=O)[nH]c1=S`, for which the result was inactive.
For `CCCCCCCCCCCCCCCCOP(=O)(O)OCCC=C(c1cc(Cl)c(O)c(C(=O)O)c1)c1cc(Cl)c(O)c(C(=O)O)c1`, the pEC50 is less than 3.84 and the pIC50 is 4.03.
In the case of `COC(=O)[C@@]1(C)CCC[C@]2(C)C3(O)C(C)C(=O)O[C@H](c4ccoc4)C3C(OC(C)=O)C21O` (stereo partly drawn), the pEC50 is less than 3.70 and the pIC50 is less than 3.70.
Take `N#CC(NNC(=O)c1ccccc1O)c1ccccc1` (stereo not drawn): the pEC50 is less than 5.03 and the pIC50 is 6.47.
As to `COc1ccc(S(=O)(=O)NC(C)C(=O)O)cc1` (stereo not drawn), the result was inactive.
On the same count and under the same terms, the value for `CC(=O)C(C)(C)CCC(C)(C)C(C)=O` was “inactive”.
Turning to `Cc1ccc(Nc2nc(C)c(C(=O)CC(=O)C(=O)Nc3ccc(Cl)cc3)s2)cc1`, the pEC50 is less than 3.70 and the negative-log IC50 (pIC50) is less than 3.70.
Turning to `CC(C)c1nsc(N)c1C(N)=O`, the pEC50 was less than 3.70 and the negative logarithm of the IC50 (pIC50) is less than 3.70.
Turning to `CC(C)CCC[C@@H](C)[C@H]1CCC2[C@@H]3CC[C@H]4C[C@@H](CCC=C(c5cc(Cl)c(OCc6ccc(-c7ccc(C(=O)O)cc7)cc6)c(C(=O)O)c5)c5cc(Cl)c(OCc6ccc(-c7ccc(C(=O)O)cc7)cc6)c(C(=O)O)c5)CC[C@]4(C)[C@H]3CC[C@@]21C` (stereo partly drawn), the pEC50 is less than 3.70 and the pIC50 is 3.77.
For the compound `COc1cc(OC)c(OC)cc1/C=C1\C=Cc2ccccc21`, the pEC50 is less than 4.75 and the pIC50 is less than 4.75.
As to `NCCSSc1ccccc1C(=O)O`, the pEC50 is less than 3.70 and the pIC50 was less than 3.70.
For the compound `CCOC(=O)c1nc2ccccc2nc1Oc1ccc(C#N)cc1`, the pEC50 was less than 3.70 and the pIC50 was less than 3.70.
With `O=C1C(c2ccc([N+](=O)[O-])cc2)=[N+]([O-])c2ccccc21`, the outcome was inactive.
As for `CCCCc1ccc(Nc2nc(Cl)c3c(ncn3C3CC(Oc4ccc(C)cc4)C(COc4ccc(C)cc4)O3)n2)cc1` (stereo not drawn), the pEC50 is less than 3.70 and the pIC50 is less than 3.70.
In the case of `NC(CCCCNCc1ccccc1O)C(=O)O` (stereo not drawn), the pEC50 was less than 3.75 and the pIC50 is less than 3.75.
Regarding `NC1=NC(=O)C(c2ccccc2)S1` (stereo not drawn), the pEC50 is less than 3.17 and the negative-log IC50 (pIC50) was less than 3.17.
With `Clc1ccc(NN(c2ccccc2)c2ccc(Cl)cc2)cc1`, the pEC50 is less than 3.70 and the pIC50 was 3.94.
Taken in the same sequence, the figures for `CCC(C)N1CN(c2ccccc2)C2(CCN(CCCC3(c4ccc(F)cc4)OCCO3)CC2)C1=O` (stereo not drawn) were less than 3.70 and 5.16.
For `CCOC(=O)C(O)(C(=O)OCC)c1cc(C(C)(C)C)c(O)c(C(C)(C)C)c1`, the pEC50 is less than 3.70 and the negative-log IC50 (pIC50) was 4.08.
With `COc1cc2c(cc1OC)C(Cl)C(c1ccc(Cl)c(Cl)c1)=C2Cl` (stereo not drawn), the result was inactive.
For the compound `Cc1cc(S(=O)(=O)Nc2nc(N)nc(N3N=CCC3C)n2)c(SCC(=O)O)cc1Cl` (stereo not drawn), the pEC50 was less than 3.70 and the pIC50 was less than 3.70.
As to `NC(N)=N/N=C/C(Cl)(Cl)Cl`, the pEC50 was less than 3.70 and the negative-log IC50 (pIC50) is less than 3.70.
For the compound `CC(=O)C(C(=O)C(C)(C)C)C(=O)C(C)(C)C`, the pEC50 was less than 3.70 and the negative logarithm of the IC50 (pIC50) was less than 3.70.
Regarding `CCOC(=O)NC(Nc1ccc(F)c(F)c1)(C(=O)OCC)C(F)(F)F` (stereo not drawn), the pEC50 was less than 3.70 and the negative-log IC50 (pIC50) was less than 3.70.
On to `CCC(C)OC(=O)/C(Br)=C1/OC(=O)c2ccccc2-c2ccccc21` (stereo not drawn), for which the pEC50 was less than 3.70 and the pIC50 was 4.32.
With `CCCCCCCCCCCCCCC1OC(=O)c2ccccc21` (stereo not drawn), the result was inactive.
On to `C=CCC1(CC(=O)O)CC=CCC12OCCO2` (stereo not drawn), for which the pEC50 was less than 3.70 and the negative-log IC50 (pIC50) was less than 3.70.
With `O=Cc1cn(CCCCCCCCn2cc(C=O)c3ccccc32)c2ccccc12`, the pEC50 was less than 3.70 and the pIC50 was less than 3.70.
In the case of `CN(C)CCCNC(=O)c1cc(NC(=O)c2cc(NC(=O)[C@@H]3C[C@H]3C(=O)Nc3cc(C(=O)Nc4cc(C(=O)NCCCN(C)C)n(C)c4)n(C)c3)cn2C)cn1C`, the outcome was inactive.
In the case of `O=C(Nc1ccccc1)c1cc(S(=O)(=O)N2CCNNC2=O)c(S)cc1Cl`, the negative logarithm of the EC50 (pEC50) was 4.99 and the pIC50 was 3.78.
On to `NC(=O)N/N=C(\CC1OC(=O)c2ccccc21)c1ccco1` (stereo not drawn), for which the pEC50 is less than 3.08 and the negative-log IC50 (pIC50) was less than 3.08.
On to `Nc1nc(=S)[nH]c(C(=O)Nc2ccc(Cl)c(Cl)c2)c1-c1ccc(Cl)cc1`, for which the pEC50 is less than 4.36 and the pIC50 was less than 4.36.
As for `C[C@H](CCC(=O)O[C@@H]1CC[C@@]2(C)C(CC[C@H]3[C@@H]4CC[C@H]([C@H](C)CCc5nc6ccccc6[nH]5)[C@@]4(C)CC[C@@H]32)C1)[C@H]1CC[C@H]2[C@@H]3CCC4C[C@H](O)CC[C@]4(C)[C@H]3CC[C@]12C` (stereo partly drawn), the pEC50 is less than 4.00 and the pIC50 is less than 4.00.
For `CN1C(=O)CC(Sc2ccccc2)c2ccccc21` (stereo not drawn), the pEC50 was less than 3.70 and the negative logarithm of the IC50 (pIC50) was 4.44.
For `[N-]=[N+]=Nc1c(C=O)c(=O)n(-c2ccccc2)c2ccccc12` the same measures were less than 3.70 and 4.66.
Taken in the same sequence, the figures for `Cc1ccc(C[N+](C)(C)c2ccccc2)o1` were less than 3.14 and 3.99.
Take `C[N+](C)(C)CC1CCCC(C[N+](C)(C)C)C1O` (stereo not drawn): the outcome was inactive.
With `O=C1N[C@@H]2c3c(Br)sc(Br)c3C(=O)[C@@H]2O1`, the pEC50 is less than 3.70 and the negative-log IC50 (pIC50) is 6.12.
For `Cc1cccc(N2C(=O)C=C(NC(CC(C)C)c3nc4ccccc4[nH]3)C2c2ccccc2)c1` (stereo not drawn), the pEC50 is less than 3.70 and the negative logarithm of the IC50 (pIC50) was 4.77.
For `CC1/C(=N/O)CC(c2ccccc2)N(N=O)C1c1ccccc1` (stereo not drawn) the same measures were less than 3.70 and 3.89.
In the case of `CCCCCCCCCCCCCCNC1=C(OC)C(=O)C(NCCCCCCCCCCCCCC)=C(OC)C1=O`, the pEC50 was less than 4.10 and the negative-log IC50 (pIC50) was less than 4.10.
Regarding `CC(C)C(N)=Nc1ccc(Cl)c(Cl)c1`, the pEC50 was less than 3.70 and the negative-log IC50 (pIC50) was 4.14.

For orientation: pEC50 means the EC50 on a negative log10 scale, so that one unit is a factor of ten. A word on the pIC50: it is −log10 of the IC50, conventionally taken in molar units. Higher therefore signals a small IC50.

(Values after PubChem BioAssay AID179 (DTP/NCI, 2004).)
